Publication PMC11050087, “Polyphenols from Maackia amurensis Heartwood Protect Neuronal Cells from Oxidative Stress and Prevent Herpetic Infection” (International Journal of Molecular Sciences, 2024)

System: PQ-treated Neuro-2a cells
Test: ROS analysis in PQ-treated cells (H2DCF-DA)
Type: cell-based, murine
Settings: PQ 1 mM
Procedure: We previously studied the effect of stilbens 9, 10, 11, and 13 on cell viability and ROS level in PQ-treated Neuro-2a cells. Here, we evaluated the neuroprotective potential against the toxic effect of PQ of stilbene 1, flavonoid 6 and isoflavonoids 2–5, 7, 12 (Figure 7a–d).
Figure 7 The effect of polyphenolic compounds isolated from M. amurensis heartwood on cell viability (a–c) and ROS levels (d) in Neuro-2a cells treated with PQ (1 mM). Polyphenolic compounds isolated from M. amurensis heartwood were used at concentrations 10, 1, 0.1 μM. The data are presented as means ± SEM of three independent replicates. (*), (**), and (***) indicate, respectively, p < 0.05, p < 0.005, and p < 0.001 versus PQ-treated cells.
After 24 h of adhesion, Neuro-2a cells (5 × 10^4 cells/mL) were incubated with polyphenolic compounds at concentrations of 0.1, 1, and 10 µM for 1 h. Then, 120 µM of 6-OHDA or 1 mM of PQ were added to each well, and cells were incubated for 1 h. To study the ROS formation, 20 µL of 2,7-dichlorodihydrofluorescein diacetate solution (H2DCF-DA, Sigma-Aldrich, St. Louis, MO, USA) were added to each well, so that the final concentration was 10 µM. Then, the microplate was incubated for 30 min at 37 °C.

O=C1C[C@@H](c2ccc(O)cc2)Oc2cc(O)ccc21 [Compound 6, liquiritigenin]
effect on ROS level in PQ-treated Neuro-2a cells (in words): effectively reduced the ROS level
